Data set [1] has as its system primary CD4+ T lymphocytes. The experiment in a line: Blocking of caspase-8 and caspase-9 activity in 6-MP-induced apoptosis. The data set is classed as cell-based, human. Particulars: 10 μM inhibitor; FACS after 5 days. The protocol:
Blocking of caspase-8 and caspase-9 activity: Primary CD4^+ T lymphocytes from peripheral blood were isolated as described above and stimulated with antibodies to CD3 and CD28 in the presence or absence of indicated amounts of N-acetyl-Leu-Glu-His-Asp-aldehyde (Biomol), a reversible inhibitor of caspase-9, or Ac-Ile-Glu-Thr-Asp-aldehyde (Bachem; Heidelberg, Germany), an inhibitor of caspase-8. Apoptosis was determined by FACS analysis after 5 days of cell culture.

Data set [2] deals with Ras. Kind of data set: Ras activation assay (GTP-bound Ras, Raf RBD pull-down). Conditions: primary T cells. The data set is classed as cell-based, human. The protocol:
(§1) Cell lysates were incubated with 10 μg/ml PAK-1 agarose (Rac assays) or 10 μg/mg Raf RBD agarose (Ras assay) for 60 minutes (Rac assays) or 30 minutes (Ras assays) at 4° C. Agarose beads were collected by centrifugation followed by denaturation, boiling of the samples, and SDS-PAGE analysis.

In data set [3] the test system is Rac1. Kind of data set: Rac1 activation assay (GTP-bound Rac1, PAK pull-down). Type of data set: cell-based, human. Conditions: primary T cells, 3 days. The protocol: as §1
Data set [4] concerns primary CD4+ T lymphocytes. The experiment in a line: Annexin V/propidium iodide FACS apoptosis of stimulated primary blood CD4+ T lymphocytes. Particulars: anti-CD3, anti-CD28, rIL-2; 4-5 days; at least comparable to 6-MP. The data set is classed as cell-based, human. The text has this: Isolation of primary CD4^+ T lymphocytes and lamina propria cells: Human peripheral blood mononuclear cells (PBMCs) from healthy volunteers (25-42 years of age) and patients with Crohn's disease (31-65 years of age) were isolated using Ficoll-Hypaque gradients. PBMCs were further purified using CD4 monoclonal antibodies attached to immunomagnetic beads according to the manufacturer's protocol, followed by treatment with Detachabead (Dynal; Oslo, Norway). In some cases, CD4^+ T cells were further separated by negative selection techniques using CD45RO or CD45RA monoclonal antibodies (PharMingen; Heidelberg, Germany) and immunomagnetic beads (Dynal). […] Lamina propria mononuclear cells (LPMCs) from patients with IBD were isolated from gut specimens using a short-term (5-minute) digestion protocol with collagenase V, hyaluronidase (Sigma-Aldrich; St. Louis, Mo., USA), and DNase (Roche; Mannheim, Germany), as recently described in detail in Holtmann et al., Eur. J. Immunol. 32:3142-3151 (2002). Briefly, specimens were washed in calcium- and magnesium-free HBSS (HBSS-CMF), cut into 0.5-cm pieces, and incubated twice in HBSS containing EDTA (0.37 mg/ml) and DTT (0.145 mg/ml) at 37° C. for 15 minutes, followed by subsequent digestion for 5 minutes with collagenase V 400 (1 mg/ml), deoxyribonuclease (0.1 mg/ml DNase), and hyaloronidase (0.1 mg/ml) in a shaking incubator at 37° C. The digested tissue was washed twice in RPMI medium containing 10% FCS and centrifuged. The tissue was finally mechanically homogenized (DAKO homogenizer; Hamburg, Germany) for 4 minutes, and cells were filtered through a sterile 40-μm cell strainer (Falcon; San Diego, Calif., USA).
Such CD28 costimulation is known to prevent apoptosis of primary T cells during T cell receptor (TCR) stimulation through activation of bcl-x, and NF-κB (Noel et al., J. Immunol. 157:636-647 (1996); Radvanyi et al., J. Immunol. 156:1788-1798 (1996); Khoshnan et al., J. Immunol. 165:1743-1754 (2000)). […] In addition, recombinant IL-2 (R&D Systems; Wiesbaden, Germany) was used at a final concentration of 40 U/ml in all experiments. Lamina propria T lymphocytes were stimulated with antibodies to CD2 (4 μg/ml; Immunotech; Marseille, France) and CD28 (1 μg/ml). […] To block CD95L-mediated (FasL-mediated) apoptosis, the NOK-1 antibody (4 μg/ml, PharMingen) was used whose Fab fragments bind to human CD95L (FasL) (Jodo et al., J. Immunol. 165:5487-5494 (2000)). Recombinant human FasL (Alexis Biochemicals; Heidelberg, Germany) was used as a positive control for the NOK-1 antibody (10 μg/ml).
For FACS analysis, apoptotic cells were detected by staining with annexin V and propidium iodide using the Annexin V FITC Apoptosis Detection Kit I (PharMingen) (Atreya et al., Nat. Med. 6:583-588 (2000)). In brief, T cells were washed twice in PBS, and the pellet was resuspended in annexin V binding buffer (PharMingen) at a concentration of 10^6 cells per milliliter. Annexin V FITC and propidium iodide were added (5 ill of each per 10^5 cells). Samples were gently mixed and incubated for 15 minutes at room temperature in the dark before FACS analysis. To verify the results obtained with the annexin V/propidium iodide staining, analysis of T cells displaying DNA fragmentation was also determined by the Nicoletti technique, as described in (Nicoletti et al., J. Immunol. Methods 139:271-279 (1991)). 10^6 T cells were fixed in 70% ethanol, washed once in HBSS, resuspended in 1 ml of HBSS and 1 ml of phosphate citric acid buffer (0.2 mol/l Na2PO4 and 0.004 mol/l citric acid [pH 7.8]), and incubated at room temperature for 5 minutes. After centrifugation, cells were resuspended in 1 ml of HBSS containing 20 μg/ml propidium iodide and 10 U DNase-free RNase A and incubated at room temperature for 30 minutes. Finally, cells were analyzed on a FACScan flow cytometer. Because of the fragmentation of DNA, apoptotic cells appear as hypodiploid in the DNA histogram.

Data set [5] can be described thus: Stability of thioguanosine phosphates in patient blood samples. The data set is classed as in vitro ADME, human. On the procedure:
Stability of the thioguanosine phosphates in blood samples was examined by storing blood samples from patients for up to 5 days at ambient temperature. RBC were isolated after the specified storage time and frozen at −80° C. until analysis.

Data set [6] concerns Recombinant Ras. The experiment in a line: Competition of [3H]GTP binding to recombinant Ras. Conditions: 0-500 μM, Raf RGD pull-down, scintillation counting. On the procedure:
(§2) Rac and Ras activation assays: The levels of Rac1- and Ras-bound GTP were determined by immunoblot techniques (Upstate Biotech; London, United Kindom). […] Cell lysates were incubated with 10 μg/ml PAK-1 agarose (Rac assays) or 10 μg/mg Raf RBD agarose (Ras assay) for 60 minutes (Rac assays) or 30 minutes (Ras assays) at 4° C. Agarose beads were collected by centrifugation followed by denaturation, boiling of the samples, and SDS-PAGE analysis. Proteins were transferred to nitrocellulose membranes and incubated with 1 μg/ml murine anti-human Rac1 or anti-human Ras (clone Ras10) antibodies overnight at 4° C., followed by detection with goat anti-mouse HRP-conjugated IgG (1:1000 dilution) and the ECL detection system. To analyze the capacity of TGTP to bind to Rac1 or Ras, chemically synthesized TGTP (obtained from Jena Bioscience, Jena, Germany) was used. Recombinant Rac1 or Ras was incubated with radiolabeled GTP ([^3H]GTP, Amersham) and increasing amounts of TGTP (0-500 μM) followed by Rac1 and Ras pull-down through PAK and Raf RGD and analysis of [^3H]GTP-bound Rac1 or Ras by scintillation counting.

Data set [7] can be described thus: Stability during storage of RBC at −80° C. The data set is classed as in vitro ADME, human. On the procedure: Stability during storage of RBC at −80° C. was investigated in samples from 18 patients. RBC which were analyzed within one week after isolation were compared with RBC stored for up to 14 weeks.
Data set [8] in a line: Stability of thioguanosine phosphates in extracted samples. The data set is classed as physicochemical. The text has this:
Stability of thioguanosine phosphates in extracted samples was investigated by storage of extracted samples from 12 patients before oxidation and after oxidation for 14 days and comparing the results with the same samples analyzed immediately after oxidation.

Data set [9] in a line: Interconversion of TGDP and TGTP in spiked blank RBC during sample work-up. Type of data set: in vitro ADME, human.
Test in data set [10]: as above
Type of data set: in vitro ADME, human. On the procedure:
Calibration samples and controls were prepared as described in Rabel et al., supra, with minor modifications. Known amounts of 6-thioguanosine phosphates were added to a mixture of EDTA and 10 μl of DTT to give a final volume of 150 μl. Finally, 100 μl of blank RBC were added and the mixture thoroughly homogenized by vortex mixing. Sample preparation was performed as described above. Calibration curves covered the range of 10 to 50 pmol for TGMP, 10 to 100 pmol for TGDP, and 20 to 400 pmol for TGTP per sample referred to 100 μl of packed blank RBC. Standard curves were obtained by linear regression using peak areas versus concentrations. Because of the partial conversion of TGDP to TGTP and vice versa, both peak areas were summed up. In addition, combinations of 5 to 20 percent of TGDP per sum of TGDP and TGTP were prepared.
The percentage of conversion of TGDP to TGTP and of TGTP to TGDP was assessed using three sets of TGDP and TGTP calibrators prepared with different RBC.
This is another data set of the same source.

Data set [11] has as its target Recombinant Rac1 (Homo sapiens, UniProt P63000). Kind of data set: Competition of [3H]GTP binding to recombinant Rac1. Conditions: 0-500 μM, PAK pull-down, scintillation counting. On the procedure:
as §2

In data set [12] the test system is primary CD4+ T lymphocytes. The experiment in a line: Mitochondrial membrane potential (JC-1, FACS). Conditions: positive control, 50 μM for 18 hours.
Setting [13] is: 5 days of storage of blood at ambient temperature.
Where [14] appears, read: more than 10 different blank RBC.

Seven compounds from patent US7524851B2 (Robert Bosch Gesellschaft fur Medizinische Forschung (RBMF), priority 2003, dated 2009) can be followed below.

Ac-IETD-aldehyde [acetyl-IETD-CHO]: the “effect on 6-MP-induced apoptosis of primary T lymphocytes” value in data set [1] was “lesser effects”.
For the compound `Nc1nc2nc[nH]c2c(=S)[nH]1` [6-TG, 6-thioguanine], the “activation of Ras (GTP-bound Ras)” value in data set [2] is on record as “fail to modulate”. Further, the “CD28 costimulation induced Rac1 activation (GTP-bound Rac1)” value in data set [3] is “strongly suppressed”. In addition, the “apoptosis of primary blood CD4+ T lymphocytes” value in [4] was “marked apoptosis”.
Turning to “N-acetyl-Leu-Glu-His-Asp-aldehyde (Ac-LEHD-aldehyde; SMILES CC(=O)N[C@@H](CC(C)C)C(=O)N[C@@H](CCC(=O)O)C(=O)N[C@@H](Cc1c[nH]cn1)C(=O)N[C@H](C=O)CC(=O)O) [acetyl-LEHD-CHO]”, the “effect on 6-MP-induced apoptosis of primary T lymphocytes” value in data set [1] was “suppressed 6-MP-induced apoptosis”.
For the compound `Nc1nc2c(ncn2[C@@H]2O[C@H](COP(=O)(O)OP(=O)(O)OP(=O)(O)O)[C@@H](O)[C@H]2O)c(=S)[nH]1` [TGTP, 6-thioguanosine triphosphate], the TGTP recovered result in data set [5] (setting [13]) is “about 5%”. Also, in [5] (one day at ambient temperature), the “change of TGTP on storage of blood samples” value is given as “marked decrease”. In addition, the “competition with GTP for recombinant Ras / [3H]GTP-bound Ras” value in [6] was “did not significantly compete”; in data set [6] (listed as 6-Thio-GTP), “little effect”. The “decrease of the proportion of TGTP” value in [7] (RBC from 18 patients at −80° C. for 8 to 14 weeks, thawed twice) was determined as 7.6±7.6%. In addition, the “effect of repeated thawing and freezing of RBC samples” value in [7] (dephosphorylation of TGTP to TGDP) is “progression in dephosphorylation”. Moreover, in data set [8] (non-oxidized extracts kept 14 days at ambient temperature before oxidation, average (range from −5 to −12%)), the “reduction of the proportion of TGTP” value was found to be 7%. Further, the “decrease of TGTP proportion” value in data set [8] (oxidized samples stored for 14 days (range from −6 to −13%)) is “approximately 8%”. Also, the “Area % of calibrator added, area calibrator × 100/(area TGTP + area TGDP), mean (n = 6)” value is listed as 95.6% in data set [9] (0.9% NaCl), 90.3% in data set [10] (spiked RBC 1), 93.9% in data set [10] (spiked RBC 2) and 82.2% in [10] (spiked RBC 3). Further, the “conversion of TGTP to TGDP” value in data set [9] (setting [14]) is given as 6-20%; in [10] (subject 1) it was 9.7%; in data set [10] (subject 2) it was 6.1%; in data set [10] (third sample) it was roughly 18%. In [9] (saline samples spiked with TGTP), the “TGDP found after sample work-up” value is listed as “about 5%”. Besides, the “binding to recombinant Rac1 / suppression of [3H]GTP-bound Rac1” value in [11] is “able to bind to recombinant Rac1 under in vitro conditions (although with lower affinity than GTP)”; in [11] (listed as 6-Thio-GTP), “concentration-dependent suppression”.
Regarding `Nc1nc2c(ncn2[C@@H]2O[C@H](COP(=O)(O)O)[C@@H](O)[C@H]2O)c(=S)[nH]1` [TGMP, 6-thioguanosine monophosphate], the “amount of TGMP as share of total thioguanosine phosphates” value in data set [5] (setting [13]) is “more than 70%”.
For the compound `Nc1nc2c(ncn2[C@@H]2O[C@H](COP(=O)(O)OP(=O)(O)O)[C@@H](O)[C@H]2O)c(=S)[nH]1` [TGDP, 6-thioguanosine diphosphate], the “change of amount of TGDP” value in data set [5] (up to 5 days of storage of blood at ambient temperature) is reported as “did not change significantly”. The “Area % of calibrator added, area calibrator × 100/(area TGTP + area TGDP), mean (n = 6)” value was 100.0% in [9] (0.9% NaCl), 91.6% in [10] (spiked RBC 1), 92.6% in data set [10] (spiked RBC 2) and 92.8% in [10] (spiked RBC 3). The “conversion of TGDP” value in [9] (0.9% NaCl) is recorded as “did not show any conversion”. Moreover, the entries for the “conversion of TGDP to TGTP” value in data set [9] (setting [14]) and in data set [10] (spiked samples from three healthy volunteers) were 6-15% and 7-8%, respectively.
`N#CC(C#N)=NNc1ccc(OC(F)(F)F)cc1` [FCCP, carbonylcyanide-4-(trifluoromethoxy)-phenylhydrazone]: the “ΔΨm in primary CD4+ T cells” value in data set [12] is recorded as “marked reduction of ΔΨm”.
